Like-named read-outs stand apart in the source and are kept apart here.
What was measured:
A2 receptors [1] = target: T1, A2 receptors (Homo sapiens, UniProt P29274); test: antagonism of NECA-stimulated adenylate cyclase in human platelet membranes (A); type: biochemical; details: for Kb: (A) Human Platelet Membranes, A2 Effects
T1 construct: Human Platelet Membranes; from tissue; host or cells: human platelets (membranes)

A2 receptors [2] = target: T2, A2 receptors (Rattus norvegicus, UniProt P30543); test: antagonism of NECA-stimulated adenylate cyclase in rat PC12 membranes (B); type: biochemical
T2 construct: Rat PC12 Membranes; endogenous in cells; host or cells: PC12

A1 adenosine receptors = target: T3, A1 adenosine receptors (Cavia porcellus, UniProt P47745); test: antagonism of adenosine agonists: reduction in force of contraction of guinea pig atrium (A1); details: for competitive antagonism at adenosine receptors in the atria / basal force of contraction in the atria: guinea pig atria
T3 construct: The left atria from male guinea pigs were isolated; from tissue; host or cells: guinea pig left atrium
T3 sequence (P47745 1-326): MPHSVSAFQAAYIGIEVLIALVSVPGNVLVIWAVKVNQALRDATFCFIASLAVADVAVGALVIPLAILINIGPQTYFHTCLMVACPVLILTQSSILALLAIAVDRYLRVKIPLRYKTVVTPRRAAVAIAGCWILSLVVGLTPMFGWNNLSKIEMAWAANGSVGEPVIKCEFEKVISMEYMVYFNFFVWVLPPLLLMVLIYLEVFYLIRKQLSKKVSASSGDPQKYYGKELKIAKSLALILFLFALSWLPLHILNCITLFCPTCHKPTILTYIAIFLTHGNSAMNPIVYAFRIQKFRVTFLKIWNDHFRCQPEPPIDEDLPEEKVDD
Procedure: The left atria from male guinea pigs were isolated, suspended between two punctate electrodes, and placed in a 20 ml organ bath that contained Krebs-[…] solution that was continuously gassed with 95% O2 +5% CO2 and maintained at 31° C. The resting tension was one gram. The atria were stimulated electrically at 1 Hz, 1 msec duration pulses at supramaximal voltage. The force of contraction was recorded isometrically. The ability of the compounds to antagonize the effects of agonists was analyzed using modified Schild plots.

A2 adenosine receptors = test: antagonism of adenosine agonists: decrease in contractile tone of guinea pig taenia caecum (A2); details: for selectivity for A1 adenosine receptors (functional tissues): atrium (A1) vs taenia caecum (A2); for antagonism of the effects of adenosine agonists in relaxing the taenia caecum: modified Schild plots; for sensitization of the tissue (larger agonist response): taenia caecum, high concentrations of the compound
Procedure: Taenia from the guinea pig caecum were cut into lengths of 1.5-2 cm. The tissues were suspended in a 20 ml organ bath containing de Jalon's solution that was gassed with 95% O2 +5% CO2 and maintained at 31° C. […] The contractile response was measured isotonically. […] The ability of the compounds to antagonize the effects of agonists was analyzed using modified Schild plots.

[3] = target: T4, rat cortical A1 receptors (Rattus norvegicus, UniProt P25099); test: displacement of [3H]-CHA from rat cortical A1 receptors; type: binding; details: [3H]-CHA; rat cortical A1 receptors; read-out: Rat Cortical Binding Constant Ki
T4 construct: rat cortical membranes were the receptor source; from tissue; host or cells: rat cerebral cortex (male Sprague Dawley) membranes
T4 sequence (P25099 1-326): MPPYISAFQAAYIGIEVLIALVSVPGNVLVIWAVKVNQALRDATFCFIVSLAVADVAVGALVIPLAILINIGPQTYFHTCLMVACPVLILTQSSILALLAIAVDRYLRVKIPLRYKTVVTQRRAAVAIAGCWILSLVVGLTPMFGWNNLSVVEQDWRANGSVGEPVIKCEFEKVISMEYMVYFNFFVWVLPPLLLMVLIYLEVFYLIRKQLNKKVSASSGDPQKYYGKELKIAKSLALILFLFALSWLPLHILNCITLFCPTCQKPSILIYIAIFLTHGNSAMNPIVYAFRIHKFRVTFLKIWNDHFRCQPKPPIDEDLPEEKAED
Procedure: (§1) Varying concentrations of test compounds were incubated with the appropriate radioligand and membrane source for 1 hr at room temperature.
(§2) Assays were terminated by filtration over Whatman GF/B filters that had been pre-soaked with 0.1% polyethyleneimine using a 24 port Brandell cell havester. The filters were washed three times with 3 ml of ice cold buffer and transfered to plastic scintillation vials to which 4 ml of Beckman Ready protein scintillation cocktail was added. The tubes were shaken and counted in a Beckman 3801 scintillation counter that converted cpm to dpm.
(§3) Data were analyzed by utilizing the Ligand, commercial computer program (Munson and Rodbard, 1980).
(§4) Male Sprague Dawley rats were killed by decapitation and the brains removed. The cerebral cortices were homogenized in 50 mm Tris; 2mm MgCl2 (pH 7.4), and centrifuged at 40,000×g for 10 minutes. […] The homogenate was centrifuged, washed once, resuspended to a protein concentration of 5-10 mg/ml and frozen at -70° C. until use.

A1 receptors [4] = target: T5, A1 receptors (Rattus norvegicus, UniProt P25099); test: prevention of R-PIA-induced inhibition of adenylate cyclase in rat fat cell membranes (C); type: biochemical; set-up: from tissue
T5 sequence (P25099 1-326): T4 sequence (P25099 1-326)
Procedure: (§5) For activity at A1 receptors, compounds were tested as inhibitors of the binding of N^6 -[…]-[3H]-Phenylisopropyladenosine in rat brain membranes and for their ability to prevent R-PIA-induced inhibition of adenylate cyclase in rat fat cell membranes.
(C) Rat Fat Cell Membranes

A1 receptors [5] = target: T5, A1 receptors; test: inhibition of binding of [3H]-phenylisopropyladenosine in rat brain membranes (D); set-up: Rat Brain Membranes; from tissue; host or cells: rat brain (membranes)
Procedure: as §5
(D) Rat Brain Membranes

adenosine receptor = details: cited from earlier work
A1 receptors [6] = target: T5, A1 receptors; test: in vivo test on heart rate / ECG of anesthetized rats
Procedure: (§6) Rats were anesthetized with urethan and blood pressure was monitored via a carotid cannula. Drug injections were made intravenously through a jugular cannula. Blood pressure, EGC, and heart rate were recorded on a Grass polygraph.

A2 receptors [7] = test: in vivo test on blood pressure of anesthetized rats; details: prior administration, anesthetized rat
Procedure: as §6

A2 receptors [8] = target: T6, A2 receptors (Bos taurus, UniProt E1BKU0); test: [3H]-NECA binding, bovine caudate membranes (A2); details: Table 4, with 50 nM cyclopentyl-adenosine
T6 construct: bovine caudate was the source of membranes; from tissue; host or cells: bovine caudate nuclei (membranes)
Procedure: Further tests to discover the affinities of test compounds at A2 receptors were conducted.
To provide bovine caudate nuclei, bovine brains were obtained fresh from a local slaughterhouse. The caudate nuclei were dissected out and homogenized in Buffer A (50 mm Tris; 1 mm Na2-EDTA; 5 mm KCl; 1 mm MgCl2; 2 mm CaCl2; pH 7.4) using a Brinkman Polytron. The homogenate was centrifuged at 40,000×g for 20 minutes and washed once. The pellet was resuspended in Buffer A, incubated at 37° C. for 15 minutes, then centrifuged. The pellet was washed once more, resuspended to a protein concentration of 5-10 mg/ml in Buffer A and frozen at -70° C. until use.
as §1, §2, §3

A1 receptors [9] = target: T5, A1 receptors; test: [3H]-CHA binding, rat cortical membranes (A1), selectivity experiment of Table 4; set-up: Rat Brain Membranes; from tissue; host or cells: rat brain (membranes)
Procedure: as §1, §2, §3, §4

A2 receptors [10] = details: vs N^6 -substituted adenosine analogs; cited from earlier work
[11] = tested on: adenosine-induced cyclic Amp accumulation in a human fibroblast cell line; details: low concentrations; cited from earlier work
[12] = (B) Rat PC12 Membranes, A2 Effects
[13] = guinea pig atrium, modified Schild plots
[14] = (C) Rat Fat Cell Membranes, A1 Effects, read-out: KB vs PIA INHIBITION (Adenylate Cyclase)

T1 sequence (P29274 whole entry): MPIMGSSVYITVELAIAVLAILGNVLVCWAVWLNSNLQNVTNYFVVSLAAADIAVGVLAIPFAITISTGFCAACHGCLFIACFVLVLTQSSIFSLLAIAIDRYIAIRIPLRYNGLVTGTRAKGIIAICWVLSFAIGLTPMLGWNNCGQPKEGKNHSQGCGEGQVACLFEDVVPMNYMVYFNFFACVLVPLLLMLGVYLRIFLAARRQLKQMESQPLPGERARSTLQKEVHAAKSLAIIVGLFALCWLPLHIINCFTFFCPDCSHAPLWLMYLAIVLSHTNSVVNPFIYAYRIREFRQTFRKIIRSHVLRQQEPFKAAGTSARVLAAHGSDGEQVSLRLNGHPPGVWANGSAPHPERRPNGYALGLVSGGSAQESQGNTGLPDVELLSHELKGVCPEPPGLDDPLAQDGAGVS
T2 sequence (P30543 whole entry): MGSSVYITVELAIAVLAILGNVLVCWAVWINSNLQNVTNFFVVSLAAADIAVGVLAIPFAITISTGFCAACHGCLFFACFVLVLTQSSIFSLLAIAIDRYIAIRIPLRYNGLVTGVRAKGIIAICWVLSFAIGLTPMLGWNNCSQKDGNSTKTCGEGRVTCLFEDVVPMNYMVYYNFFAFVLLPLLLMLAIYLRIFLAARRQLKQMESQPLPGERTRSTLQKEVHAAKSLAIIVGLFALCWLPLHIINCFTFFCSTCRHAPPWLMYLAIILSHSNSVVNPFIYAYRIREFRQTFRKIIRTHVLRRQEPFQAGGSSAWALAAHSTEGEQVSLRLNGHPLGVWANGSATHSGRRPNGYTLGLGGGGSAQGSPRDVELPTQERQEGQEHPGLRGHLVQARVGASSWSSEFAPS
T6 sequence (E1BKU0 1-401): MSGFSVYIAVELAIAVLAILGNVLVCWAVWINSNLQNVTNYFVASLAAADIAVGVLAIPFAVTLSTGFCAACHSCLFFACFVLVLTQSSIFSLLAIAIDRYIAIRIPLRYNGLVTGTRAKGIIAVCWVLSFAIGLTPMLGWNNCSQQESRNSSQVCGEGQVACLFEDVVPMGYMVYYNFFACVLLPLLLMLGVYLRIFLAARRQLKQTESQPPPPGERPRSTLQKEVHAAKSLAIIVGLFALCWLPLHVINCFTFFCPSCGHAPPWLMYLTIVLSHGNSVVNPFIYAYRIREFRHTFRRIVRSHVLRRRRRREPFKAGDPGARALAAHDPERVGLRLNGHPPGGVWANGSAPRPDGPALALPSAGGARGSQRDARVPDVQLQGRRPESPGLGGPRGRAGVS

Cn1cnc2c(NC3CCCC3)ncnc21 [compound 0840, N^6 -Cyclopentyl-9-Methyl Adenine]
Kb (A2 receptors [1]): 4.9 µM | potency relative to 9-methyladenine at A2 receptors (A2 receptors [1]; human platelet assay, vs 9-methyladenine): 5 fold | Kb (A2 receptors [2]; [12]): 25 µM | competitive antagonism at adenosine receptors in the atria (A1 adenosine receptors): competitive antagonists at adenosine receptors in the atria | affinity constant pKB (A1 adenosine receptors; [13]): 6.17 ± 0.11 | selectivity for A1 adenosine receptors (functional tissues) (A2 adenosine receptors): selective for A1 adenosine receptors | antagonism of the effects of adenosine agonists in relaxing the taenia caecum (A2 adenosine receptors): did not competitively antagonize the effects of adenosine agonists in relaxing the taenia caecum | sensitization of the tissue (larger agonist response) (A2 adenosine receptors): some sensitization of the tissue | Ki [3]: 0.375 µM | Kb (A1 receptors [4]; [14]): 1.3 µM | potency relative to 9-methyladenine at A1 receptors (A1 receptors [5]; A1 receptors, vs 9-methyladenine): at least 100 fold

Cn1c(=O)c2[nH]c(-c3ccccc3)nc2n(C)c1=O [8-phenyltheophylline (8-PT), 8-phenyltheophylline, reference compound]
antagonism of the effects of adenosine agonists in relaxing the taenia caecum (A2 adenosine receptors): did antagonize the effects of agonists at low concentrations | sensitization of the tissue (larger agonist response) (A2 adenosine receptors): Sensitization is also observed | selectivity among adenosine receptors (adenosine receptor): non-selective adenosine receptor antagonist

Cn1cnc2c(N[C@H]3C[C@H]4CC[C@@H]3C4)ncnc21 (relative stereo) [compound 0861, N^6-(endo-2-Norbornyl)-9-Methyladenine]
potency ranking as antagonist (A1 adenosine receptors; among the Table 2 examples): the most potent antagonist | competitive antagonism at adenosine receptors in the atria (A1 adenosine receptors): competitive antagonists at adenosine receptors in the atria | selectivity for A1 adenosine receptors (functional tissues) (A2 adenosine receptors): selective for A1 adenosine receptors | antagonism of the effects of adenosine agonists in relaxing the taenia caecum (A2 adenosine receptors): did not competitively antagonize the effects of adenosine agonists in relaxing the taenia caecum | sensitization of the tissue (larger agonist response) (A2 adenosine receptors): some sensitization of the tissue | cardio-selectivity in vivo (A1 receptors [6]): cardio-selective adenosine receptor antagonist in vivo | effects of subsequently administered adenosine on all parameters measured (blood pressure, heart rate, P-R interval) (A1 receptors [6]; intravenous): attenuated the effects of subsequently administered adenosine on all parameters measured | heart block caused by high doses of adenosine (A1 receptors [6]; intravenous): substantially reduced | effects of NECA on the heart (A1 receptors [6]; prior administration): attenuated the effects of NECA on the heart | NECA-induced decrease in blood pressure (A2 receptors [7]): minimally affecting the NECA-induced decrease in blood pressure | Ki [3]: 0.116 µM | Ki (A2 receptors [8]): 6.96 µM | selectivity for A1 receptors over A2 receptors (A1 receptors [9]; A1 vs A2): 170 fold | Ki (A1 receptors [9]; Table 4, [3H]-CHA, rat cortical membranes per text): 0.041 µM

CCNC(=O)[C@H]1O[C@@H](n2cnc3c(N)ncnc32)[C@H](O)[C@@H]1O [NECA, 5'-N-ethylcarboxamido-adenosine]
potency at A2 receptors (A2 receptors [10]): more potent than N^6 -substituted analogs

Nc1ncnc2nc[nH]c12 [Adenine, reference compound]
Kb (A2 receptors [2]): 570 µM | antagonism of adenosine-induced cyclic Amp accumulation [11]: specific competitive antagonism | Kb (A1 receptors [4]): > 1000 µM | Ki (A1 receptors [5]): > 100 µM

CCC(CC)Nc1ncnc2c1ncn2C [N^6-3-Pentyl-9-MA, N^6-3-Pentyl-9-Methyladenine]
Kb (A2 receptors [1]): 11 µM | Kb (A2 receptors [2]; [12]): 53 µM | basal force of contraction in the atria (A1 adenosine receptors): increases in basal force of contraction in the atria | competitive antagonism at adenosine receptors in the atria (A1 adenosine receptors): competitive antagonists at adenosine receptors in the atria | affinity constant pKB (A1 adenosine receptors; [13]): 5.4 ± 0.14 | selectivity for A1 adenosine receptors (functional tissues) (A2 adenosine receptors): selective for A1 adenosine receptors | antagonism of the effects of adenosine agonists in relaxing the taenia caecum (A2 adenosine receptors): did not competitively antagonize the effects of adenosine agonists in relaxing the taenia caecum | sensitization of the tissue (larger agonist response) (A2 adenosine receptors): some sensitization of the tissue | Kb (A1 receptors [4]; [14]): 7.6 µM | Ki (A1 receptors [5]; (D) Rat Brain Membranes, A1 Effects, read-out: Ki vs [^3 H] PI (Binding)): 3.3 µM

CCC(Cc1cccs1)Nc1ncnc2c1ncn2C (centres unmarked) [N^6-1-(2-Thienyl)-2-butyl)-9-MA, N^6-1-(2-Thienyl)-2-butyl-9-MA]
basal force of contraction in the atria (A1 adenosine receptors): increases in basal force of contraction in the atria | competitive antagonism at adenosine receptors in the atria (A1 adenosine receptors): competitive antagonists at adenosine receptors in the atria | Kb (A1 adenosine receptors; guinea pig atrium, modified Schild plots, read-out: affinity constant pKB (converted)): 4.37 µM

Nc1ncnc2c1ncn2[C@@H]1O[C@H](CO)[C@@H](O)[C@H]1O [Adenosine, reference compound]
heart block at high doses (A1 receptors [6]; high doses): causes heart block

From patent US5565566A (Discovery Therapeutics, Inc., priority 1995, dated 1996)
